US4544662A, “1'-Substituted-spiro[oxazolidine-5-3'-indoline]-2,2', 4-trione derivatives” (Imperial Chemical Industries, priority 1982, dated 1985)

Molecular target: T1, aldose reductase (Bos taurus, UniProt P16116)
T1 construct: purified aldose reductase is isolated in known manner from bovine lenses; from tissue; host or cells: bovine lens
Assay: in vitro inhibition of purified aldose reductase isolated from bovine lenses (spectrophotometric)
Type: biochemical
Conditions: purified bovine lens aldose reductase; reduction of glucose to sorbitol; read-out: IC50 (concentration necessary to produce 50% inhibition of enzymic activity)
Method: Thus, purified aldose reductase is isolated in known manner from bovine lenses. The percentage inhibition of this enzyme's ability in vitro to reduce aldoses to polyhydric alcohols, and particularly to reduce glucose to sorbitol, caused by a test compound is then determined using standard spectrophotometric methods.

IC50 [nM]	SMILES
20	Cc1cccc2c1N(Cc1ccc(Br)cc1F)C(=O)C21OC(=O)NC1=O (centres unmarked) [Example 6, 1'-(4-bromo-2-fluorobenzyl)-7'-methylspiro[oxazolidine-5,3'-indoline]-2,2',4-trione]
25	Cc1cc(Cl)cc2c1N(Cc1ccc(Cl)c(Cl)c1)C(=O)C21OC(=O)NC1=O (centres unmarked) [Example 7, 1'-(3,4-dichlorobenzyl)-5'-chloro-7'-methylspiro[oxazolidine-5,3'-indoline]-2,2',4-trione]
